Earlier results in US7378109B2, “Pharmaceutical composition for improving palatability of drugs and process for preparation thereof” (Council of Scientific and Industrial Research, priority 2004, dated 2008).

Conditions: humans, oral

## CO/N=C(\C(=O)N[C@@H]1C(=O)N2C(C(=O)OC(C)OC(C)=O)=C(COC(N)=O)CS[C@H]12)c1ccco1 (stereo partly shown) [Cefuroxime axetil]
  bioavailability: 32-50%
